In patent US7208515B2, “Diphenylmethyl compounds useful as muscarinic receptor antagonists” (Theravance, Inc., priority 2004, dated 2007) one finds Ki data, which are given here for one compound.

In general, Ki refers to a measure of affinity in units of concentration, obtained from inhibition or displacement.

The test concerns the target T1, hM3 receptor (CHO cells) (Homo sapiens, UniProt P20309).
T1 construct: expressed in transfected cells
As to the kind of experiment: Blockade of agonist-mediated calcium release via FLIPR assay. The class given is cell-based. The following applies: CHO cells stably expressing the hM3 receptor, oxotremorine. The source says: C. Blockade of Agonist-Mediated Calcium Release via FLIPR Assays
Muscarinic receptor subtypes (M1, M3 and M5 receptors), which couple to Gq proteins, activate the phospholipase C (PLC) pathway upon agonist binding to the receptor. As a result, activated PLC hydrolyzes phosphatyl inositol diphosphate (PIP2) to diacylglycerol (DAG) and phosphatidyl-1,4,5-triphosphate (IP3), which in turn generates calcium release from intracellular stores, i.e., endoplasmic and sarcoplasmic reticulum. […] This fluorescence event was measured in real time by the FLIPR, which detected the change in fluorescence from a monolayer of cells cloned with human M1 and M3, and chimpanzee M5 receptors. Antagonist potency was determined by the ability of antagonists to inhibit agonist-mediated increases in intracellular calcium. […]
To determine antagonist potency, the dose-dependent stimulation of intracellular Ca^2+ release for oxotremorine was first determined so that antagonist potency can later be measured against oxotremorine stimulation at an EC90 concentration. […]
The parameters used for the FLIPR were: exposure length of 0.4 seconds, laser strength of 0.5 watts, excitation wavelength of 488 nm, and emission wavelength of 550 nm. Baseline was determined by measuring the change in fluorescence for 10 seconds prior to addition of agonist. […]

SMILES strings stand for the structures.

T1 sequence (P20309 whole entry): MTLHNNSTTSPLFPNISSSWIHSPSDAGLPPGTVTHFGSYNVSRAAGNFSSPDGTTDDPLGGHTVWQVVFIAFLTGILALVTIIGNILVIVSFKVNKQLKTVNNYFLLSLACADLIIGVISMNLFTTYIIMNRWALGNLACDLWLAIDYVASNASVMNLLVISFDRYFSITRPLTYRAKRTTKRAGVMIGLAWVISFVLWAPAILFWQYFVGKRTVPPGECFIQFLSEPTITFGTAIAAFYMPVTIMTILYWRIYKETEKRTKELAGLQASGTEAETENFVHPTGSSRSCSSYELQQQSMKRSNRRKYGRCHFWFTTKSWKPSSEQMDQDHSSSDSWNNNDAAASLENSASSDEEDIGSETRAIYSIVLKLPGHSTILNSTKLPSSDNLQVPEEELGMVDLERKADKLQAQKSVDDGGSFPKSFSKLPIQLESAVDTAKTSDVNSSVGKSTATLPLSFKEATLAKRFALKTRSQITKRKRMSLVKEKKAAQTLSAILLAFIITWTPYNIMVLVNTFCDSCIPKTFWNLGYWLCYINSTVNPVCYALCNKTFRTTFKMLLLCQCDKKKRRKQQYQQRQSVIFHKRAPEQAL

Consider `CNCC(=O)NCCCCCN1CC[C@@H](C(C(N)=O)(c2ccccc2)c2ccccc2)C1` [Example 1], for which the Ki was under 100 nM.
